Assay results reported in patent US7321002B2, “Chiral integrin modulators and methods of use thereof” (Billings Pharmaceuticals, Inc., priority 2000, dated 2008).

How the values were obtained:
VLA-4 = target: T1, VLA-4 (Homo sapiens, UniProt P05556+P13612); experiment: Inhibition of VLA-4-mediated adhesion of enzyme-labeled PM1 cells to VCAM-1-coated substrata; assay type: cell-based; details: PM1 cells on immobilized VCAM-1; listed as Z(−) enantiomer of ajoene
T1 construct: host or cells: PM1 cells (VLA-4); COS7 cells secrete the VCAM/IgG ligand
Description: In addition, the invention discloses methods whereby the integrin-modulating activity of ajoene enantiomers may be assessed. One such method involves VLA-4-mediated adhesion of enzyme-labeled PM1 cells to VCAM-1-coated artificial substrata. Specifically, the cells were exposed to isolated ajoene enantiomers (or the vehicle thereof) and allowed to adhere to immobilized VCAM-1. Thereafter, the adherent cells were lyzed and, following addition of the substrate of the enzyme and incubation, the activity of the enzyme was measured spectrophotometrically. The value of this parameter, characterizing the number of the adherent cells, is inversely proportional to the integrin-modulating activity of the compound.
Integrin-modulating activity of the enantiomers was compared in a well-defined system of inhibition of VLA-4-mediated adhesion of enzyme-labeled PM1 cells (NIH AIDS Repository, Rockville, Md.) to VCAM-1-coated artificial substrata. In this experiment, enzyme-linked immunosorbent assay (ELISA) plates were coated with rabbit anti-human IgG (Fc-specific). Aliquots of 100 μL of supernatant from VCAM/IgG-secreting COS7 cells were added to each well, the plates incubated at 37° C. for 1 hour, and the wells washed with phosphate-buffered saline (PBS). […] The reaction was stopped with 0.5 M H2SO4, andthe optical density of the wells, read at 450 nm. […]

[1] = test system: HIV-1RF-infected H9 cells; experiment: HIV-induced syncytium formation: fusion of intact H9 cells with HIV-1RF-infected H9 cells; assay type: cell-based; details: H9 + HIV-1RF-infected H9 cells, 6 to 15 hours at 37° C., FIG. 1
Excerpt: For all the curves, the effect of ajoene enantiomers and enantiomer mixtures on the fusion of cultured, intact H9 cells with HIV-1RF-infected H9 cells is disclosed. The vertical graph axis expresses the maximum amount of syncytia formed in the absence of the compounds (100 percent), while the points on the curves represent percentages of such an amount of syncytia formed in the presence of varying concentrations of the compounds and compound mixtures (micromoles per liter).
Another such method is based on the inhibition of HIV-mediated syncytium formation, a phenomenon known to depend on the functional activity of integrins. The purified Z enantiomers, racemic E-ajoene, and the original 3:1 mixture of racemic Z- and E-ajoenes were taken up in DMSO at a concentration of 10 mg/mL. Dilutions were made in RPMI 1640 medium containing 10% fetal calf serum and 10 mM HEPES (cRPMW). HIV-1RF-infected H9 cells and uninfected H9 cells were washed with cRPMI and resuspended in cRPMI at a density of 4×10^6 per mL. Uninfected cells (50 μL) were mixed with serial dilutions of the compounds (100 μL) and incubated at 37° C. for30 minutes before adding and mixing 50 μL of infected H9 cells. The plates were incubated at 37° C. for 6 to 15 hours before scoring syncytium formation.
The purified enantiomers were taken up in DMSO at a concentration of 10 mg/mL. Dilutions were made in RPMI 1640 medium containing 10% fetal calf serum and 10 mM HEPES (cRPMI). H9 cells (ATCC, Rockville, Md.) infected with HIV-1RF, (NIH AIDS Repository, Rockville, Md.) and uninfected H9 cells were washed with cRPMI and resuspended in cRPMI at a density of 4×10^6 per mL. Uninfected cells (50 μL) were mixed with serial dilutions of the compounds (100 μL) and incubated at 37° C. for 30 min before adding and mixing 50 μL of infected H9 cells. The plates were incubated at 37° C. for 6 to 15 hours before scoring syncytium formation.

T1 sequence (P13612 34-1032): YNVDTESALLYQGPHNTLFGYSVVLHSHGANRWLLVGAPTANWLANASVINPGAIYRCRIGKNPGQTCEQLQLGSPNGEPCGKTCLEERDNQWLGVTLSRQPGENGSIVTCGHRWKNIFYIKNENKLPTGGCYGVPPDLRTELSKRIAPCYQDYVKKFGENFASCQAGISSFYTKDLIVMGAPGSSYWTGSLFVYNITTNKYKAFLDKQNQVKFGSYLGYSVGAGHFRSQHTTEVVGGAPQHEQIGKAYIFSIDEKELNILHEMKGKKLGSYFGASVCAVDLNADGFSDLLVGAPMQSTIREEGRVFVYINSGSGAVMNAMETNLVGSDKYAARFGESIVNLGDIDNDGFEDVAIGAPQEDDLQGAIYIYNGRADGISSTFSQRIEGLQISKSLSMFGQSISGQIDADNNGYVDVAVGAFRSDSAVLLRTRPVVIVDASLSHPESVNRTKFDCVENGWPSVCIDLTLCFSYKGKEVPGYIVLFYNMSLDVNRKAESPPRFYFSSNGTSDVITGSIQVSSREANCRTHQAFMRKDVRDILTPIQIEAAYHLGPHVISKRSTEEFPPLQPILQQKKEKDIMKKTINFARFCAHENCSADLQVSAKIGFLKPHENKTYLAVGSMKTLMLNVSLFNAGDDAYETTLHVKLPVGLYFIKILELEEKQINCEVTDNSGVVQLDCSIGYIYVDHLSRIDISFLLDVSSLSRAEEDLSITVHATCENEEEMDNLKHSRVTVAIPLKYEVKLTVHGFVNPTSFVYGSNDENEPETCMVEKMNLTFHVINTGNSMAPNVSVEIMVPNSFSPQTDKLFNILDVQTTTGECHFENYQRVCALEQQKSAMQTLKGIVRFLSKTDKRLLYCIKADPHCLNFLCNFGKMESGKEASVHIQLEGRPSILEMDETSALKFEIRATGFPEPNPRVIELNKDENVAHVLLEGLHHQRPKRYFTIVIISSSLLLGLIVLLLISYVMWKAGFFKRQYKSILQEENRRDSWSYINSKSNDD
T1 sequence (P05556 21-798): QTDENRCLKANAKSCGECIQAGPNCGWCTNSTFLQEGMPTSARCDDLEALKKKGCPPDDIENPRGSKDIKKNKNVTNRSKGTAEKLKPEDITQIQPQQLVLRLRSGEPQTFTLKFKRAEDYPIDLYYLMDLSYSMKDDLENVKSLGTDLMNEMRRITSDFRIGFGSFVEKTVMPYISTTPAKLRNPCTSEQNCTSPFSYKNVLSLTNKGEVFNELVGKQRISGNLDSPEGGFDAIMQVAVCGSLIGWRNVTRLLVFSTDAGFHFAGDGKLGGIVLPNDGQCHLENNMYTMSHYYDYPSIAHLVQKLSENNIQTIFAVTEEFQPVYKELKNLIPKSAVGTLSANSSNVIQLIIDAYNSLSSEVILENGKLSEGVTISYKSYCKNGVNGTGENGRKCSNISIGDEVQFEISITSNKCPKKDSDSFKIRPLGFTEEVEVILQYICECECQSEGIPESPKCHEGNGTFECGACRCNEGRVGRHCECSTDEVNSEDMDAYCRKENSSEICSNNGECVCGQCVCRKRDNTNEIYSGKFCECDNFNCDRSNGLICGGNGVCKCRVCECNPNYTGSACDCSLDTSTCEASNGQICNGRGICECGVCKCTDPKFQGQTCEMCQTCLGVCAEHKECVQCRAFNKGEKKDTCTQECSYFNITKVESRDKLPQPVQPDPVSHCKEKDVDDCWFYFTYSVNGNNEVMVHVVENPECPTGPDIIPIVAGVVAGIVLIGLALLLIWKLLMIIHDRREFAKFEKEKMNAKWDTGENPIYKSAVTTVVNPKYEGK

| adhesion-inhibiting activity relative to the other enantiomers / original 3:1 mixture (VLA-4) | SMILES | IC100 of syncytium formation [1] | IC100 of syncytium formation ([1]; listed as Z(−) enantiomer) | IC100 of syncytium formation ([1]; listed as Z(+)) |
| --- | --- | --- | --- | --- |
| 4 fold | C=CCSS/C=C\C[S+]([O-])CC=C (stereo not drawn) [Z(−)-ajoene, Z(−)-4,5,9-trithiadodeca-1,6,11-triene-9-oxide] | 12.5 micromoles per liter | 12.5 micromoles per liter |  |
|  | C=CCSS/C=C\C[S+]([O-])CC=C (stereo not drawn) [Z(+)-ajoene, Z(+)-4,5,9-trithiadodeca-1,6,11-triene-9-oxide] |  |  | 50 micromoles per liter |
|  | C=CCSSC=CC[S+]([O-])CC=C (racemic) [unseparated 3:1 mixture of racemic Z- and E-ajoenes, 4,5,9-trithiadodeca-1,6,11-triene-9-oxide, reference compound] | 50 micromoles per liter |  |  |
|  | C=CCSS/C=C/C[S+]([O-])CC=C (racemic) [racemic E-ajoene, reference compound] | 50 micromoles per liter |  |  |
